Measured values from PubChem BioAssay AID1918947 (Molecular Pharmacology Branch, DTP, NCI, 2023).
“And” between values parts separate entries of the source, which are not always exact repeats. Identical values can stand only once.

System: A498 complex spheroid viability
Assay: Anticancer human tumor A498 cell line growth inhibition;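 further: spheroids exposed to agents for seven days before readout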;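 on viability, T/C: 100% = DMSO vehicle-treated spheroids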
Conditions: for viability, T/C: stronger effect = lower value
Description: Multicellular complex tumor spheroid response to LSD1 Inhibitor Iadademstat in combination with a variety of drugs and investigational agents in selected tumor cell lines
The current study was undertaken to assess response to LSD1 inhibitors in combination with standard-of-care drugs and investigational agents in solid tumor complex spheroid models as well as in the K-562 leukemia. Complex spheroids include a stromal component modeled by human endothelial cells (HUVEC) and fibroblasts modeled by human mesenchymal stem cells (MSCs). The concentration ranges selected for each drug and investigational agent were based upon clinically achievable concentrations if the clinical Cmax of the agent was known.
Compounds. The drugs and investigational agents used in this study are listed on Table 1. All of the agents used, including staurosporine (NSC755774) and gemcitabine (NSC613327), were obtained from the Developmental Therapeutics Program, NCI. FDA-approved anticancer drugs are available from the NCI at http://dtp.nci.nih.gov/branches/dscb/oncology_drugset_explanation.html. Drugs and investigational agents were >95% pure by proton nuclear magnetic resonance (NMR) and liquid chromatography/mass spectrometry (LC/MS). Stock solutions were prepared at 400x in DMSO, stored at -70 degrees C, and diluted in fresh medium prior to their use. The final concentration of DMSO in cell culture wells never exceeded 0.25% (v/v). The FDA-approved anticancer drug set is available from the Developmental Therapeutics Program at https://dtp.cancer.gov/organization/dscb/obtaining/available_plates.htm. All drugs and investigational agents were tested over a range starting from a high concentration at or near the clinical Cmax and decreasing in half-log increments. If the clinical Cmax for an agent had not been determined, the highest concentration tested was 10 microM.
Cell Lines. The patient-derived cancer cell (PDC) lines: 292921-168-R-J2-PDC, K24384-001-R-PDC, and 521955-158-R2-J5-PDC pancreatic carcinomas, 556581-035-R-J1 ovarian carcinoma, 324938-238-R-J1-PDC, 855422-203-R-J1-PDC and 883617-216-R-J1-PDC urothelial bladder carcinomas, 743489-274-T-PDC renal cell carcinoma, 138582-R-J1 Merkel cell tumor, K60290-347-R-J1 and K57222-313-R-J1-PDC glioblastomas, 653999-131-R-J2-PDC, LG0703-F948-PDC, and 349418-098-R-PDC non-small cell lung carcinomas, 885512-296-R-J2-PDC, 171881-019-R-J1-PDC breast carcinomas and 186277-243-T-J2-PDC and 233499-124-R-J2-PDC colon carcinomas were obtained from the NCI Patient-Derived Models Repository (PDMR, https://pdmr.cancer.gov). The established cell lines NCI/ADR-RES (RRID:CVCL_14520 and OVCAR-5 (RRID:CVCL_1628) ovarian carcinomas, 786-O (RRID:CVCL_1051) and A498 (RRID:CVCL_A498) renal cell carcinoma, NCI-H211 (ATCC, cat. CRL-5824; RRID:CVCL_1529), NCI-H196 (ATCC, cat. CRL-5823, RRID:CVCL_1509), SW 1271 (ATCC, cat. CRL-2177, RRID:CVCL_1716) and NCI-H1876 (ATCC, cat. CRL-5902, RRID:CVCL_1503) small cell lung carcinomas, MDA-MB-231 (RRID:CVCL_0062) and MDA-MB-468 (RRID:CVCL_0419)breast carcinomas (10-12). Pooled donor human umbilical vein endothelial cells (HUVEC, Lonza, cat. CC-2519) and human mesenchymal stem cells (hMSC, Lonza, cat. PT-2501) were purchased from Lonza (Walkersville, MD).
Cell Culture. All cells were maintained in an incubator at 37 degrees C and 5% CO2 with 95% humidity. The PDC lines were cultured according to standard operating procedures established by the NCI PDMR (https://pdmr.cancer.gov). Briefly all PDCs were thawed and cultured in Matrigel-coated flasks prepared with a working solution of 1X Ham's F-12 nutrient mix, without supplementation (Invitrogen, Waltham, MA, cat. 11765054), 100 U/mL penicillin-streptomycin (Invitrogen, cat. 15140122), and 2.5% Matrigel (Corning Inc., Corning, NY, cat. 354248) for the first three passages. […]

[1] = curve of first compound, second compound 0.1 µM
[2] = curve of first compound, second compound 0.316 µM
[3] = curve of first compound, second compound 1 µM
[4] = curve of first compound, second compound 3.16 µM
[5] = curve of first compound, second compound 10 µM
[6] = second compound 0.1 µM, first compound 0.000316 µM
[7] = second compound 0.1 µM, first compound 0.001 µM
[8] = second compound 0.1 µM, first compound 0.00316 µM
[9] = second compound 0.1 µM, first compound 0.01 µM
[10] = second compound 0.1 µM, first compound 0.0316 µM
[11] = second compound 0.1 µM, first compound 0.1 µM
[12] = second compound 0.316 µM, first compound 0.000316 µM
[13] = second compound 0.316 µM, first compound 0.001 µM
[14] = second compound 0.316 µM, first compound 0.00316 µM
[15] = second compound 0.316 µM, first compound 0.01 µM
[16] = second compound 0.316 µM, first compound 0.0316 µM
[17] = second compound 0.316 µM, first compound 0.1 µM
[18] = second compound 1 µM, first compound 0.000316 µM
[19] = second compound 1 µM, first compound 0.001 µM
[20] = second compound 1 µM, first compound 0.00316 µM
[21] = second compound 1 µM, first compound 0.01 µM
[22] = second compound 1 µM, first compound 0.0316 µM
[23] = second compound 1 µM, first compound 0.1 µM
[24] = second compound 3.16 µM, first compound 0.000316 µM
[25] = second compound 3.16 µM, first compound 0.001 µM
[26] = second compound 3.16 µM, first compound 0.00316 µM
[27] = second compound 3.16 µM, first compound 0.01 µM
[28] = second compound 3.16 µM, first compound 0.0316 µM
[29] = second compound 3.16 µM, first compound 0.1 µM
[30] = second compound 10 µM, first compound 0.000316 µM
[31] = second compound 10 µM, first compound 0.001 µM
[32] = second compound 10 µM, first compound 0.00316 µM
[33] = second compound 10 µM, first compound 0.01 µM
[34] = second compound 10 µM, first compound 0.0316 µM
[35] = second compound 10 µM, first compound 0.1 µM

Work on CC[C@@]1(O)C(=O)OCc2c1cc1n(c2=O)Cc2cc3c(CN(C)C)c(O)ccc3nc2-1 + NC1CCC(NC2CC2c2ccccc2)CC1 yielded an IC50 [1] of 39.6 nM, an IC50 [2] of 47.3 nM and an IC50 [3] of 38.4 nM. For the same molecule, the IC50 [4] was 36.3 nM, the IC50 [5] was 29.3 nM and the viability, T/C [6] was 82.3%. The viability, T/C [7] was 82.9%, the viability, T/C [8] was 71.7% and the viability, T/C [9] was 61.2%. For the same molecule, the viability, T/C [10] was 57.5%, the viability, T/C [11] was 35.7% and the viability, T/C [12] was 96.6%. It also gave a viability, T/C [13] of 88.2%, a viability, T/C [14] of 81.8% and a viability, T/C [15] of 68%. The viability, T/C [16] was 59.1%, the viability, T/C [17] was 37.4% and the viability, T/C [18] was 85.3%. The viability, T/C [19] was 82.3%, the viability, T/C [20] was 78.8% and the viability, T/C [21] was 62.8%. The viability, T/C [22] was 56.6%, the viability, T/C [23] was 32.2% and the viability, T/C [24] was 78.7%. It also gave a viability, T/C [25] of 81.5%, a viability, T/C [26] of 73.1% and a viability, T/C [27] of 64.8%. It also gave a viability, T/C [28] of 53.7%, a viability, T/C [29] of 30.6% and a viability, T/C [30] of 76.9%. For the same molecule, the viability, T/C [31] was 79%, the viability, T/C [32] was 69.8% and the viability, T/C [33] was 61.9%. It also gave a viability, T/C [34] of 50.1% and a viability, T/C [35] of 28%.
O=C(C=Cc1cccc(S(=O)(=O)Nc2ccccc2)c1)NO + NC1CC1c1ccc(-c2cccc(O)c2)cc1 showed an IC50 [1] of 352 nM, an IC50 [2] of 398 nM and an IC50 [3] of 325 nM. For the same molecule, the IC50 [4] was 364 nM, the IC50 [5] was 343 nM and the viability, T/C (second compound 0.1 µM, first compound 0.00949 µM) was 105%. For the same molecule, the viability, T/C (second compound 0.1 µM, first compound 0.03 µM) was 90.2%, the viability, T/C (second compound 0.1 µM, first compound 0.0949 µM) was 78.6% and the viability, T/C (second compound 0.1 µM, first compound 0.3 µM) was 49%. It also gave a viability, T/C (second compound 0.1 µM, first compound 0.949 µM) of 32.4%, a viability, T/C (second compound 0.1 µM, first compound 3 µM) of 7.4% and a viability, T/C (second compound 0.316 µM, first compound 0.00949 µM) of 105%. The viability, T/C (second compound 0.316 µM, first compound 0.03 µM) was 93.2%, the viability, T/C (second compound 0.316 µM, first compound 0.0949 µM) was 76.9% and the viability, T/C (second compound 0.316 µM, first compound 0.3 µM) was 53.3%. It also gave a viability, T/C (second compound 0.316 µM, first compound 0.949 µM) of 34.3%, a viability, T/C (second compound 0.316 µM, first compound 3 µM) of 7.34% and a viability, T/C (second compound 1 µM, first compound 0.00949 µM) of 98.4%. It also gave a viability, T/C (second compound 1 µM, first compound 0.03 µM) of 88.3%, a viability, T/C (second compound 1 µM, first compound 0.0949 µM) of 76.8% and a viability, T/C (second compound 1 µM, first compound 0.3 µM) of 49.3%. The viability, T/C (second compound 1 µM, first compound 0.949 µM) was 28.4%, the viability, T/C (second compound 1 µM, first compound 3 µM) was 6.7% and the viability, T/C (second compound 3.16 µM, first compound 0.00949 µM) was 93.9%. The viability, T/C (second compound 3.16 µM, first compound 0.03 µM) was 84.4%, the viability, T/C (second compound 3.16 µM, first compound 0.0949 µM) was 66.6% and the viability, T/C (second compound 3.16 µM, first compound 0.3 µM) was 52.2%. For the same molecule, the viability, T/C (second compound 3.16 µM, first compound 0.949 µM) was 37.6%, the viability, T/C (second compound 3.16 µM, first compound 3 µM) was 5.52% and the viability, T/C (second compound 10 µM, first compound 0.00949 µM) was 93.2%. For the same molecule, the viability, T/C (second compound 10 µM, first compound 0.03 µM) was 81.3%, the viability, T/C (second compound 10 µM, first compound 0.0949 µM) was 66.7% and the viability, T/C (second compound 10 µM, first compound 0.3 µM) was 55.5%. For the same molecule, the viability, T/C (second compound 10 µM, first compound 0.949 µM) was 30.7% and the viability, T/C (second compound 10 µM, first compound 3 µM) was 5.21%.
Molecule CC(C)CC(NC(=O)C(Cc1ccccc1)NC(=O)c1cnccn1)B(O)O (stereo not drawn) + NC1CC1c1ccc(-c2cccc(O)c2)cc1 has an IC50 [1] of 0.661 nM, an IC50 [2] of 0.69 nM and an IC50 [3] of 0.66 nM. For the same molecule, the IC50 [4] was 0.598 nM, the IC50 [5] was 0.604 nM and the viability, T/C [6] was 105%. For the same molecule, the viability, T/C [7] was 19.2%, the viability, T/C [8] was 2.39% and the viability, T/C [9] was 0.87%. For the same molecule, the viability, T/C [10] was 1%, the viability, T/C [11] was 0.39% and the viability, T/C [12] was 109%. It also gave a viability, T/C [13] of 21.9%, a viability, T/C [14] of 3.05% and a viability, T/C [15] of 1.15%. For the same molecule, the viability, T/C [16] was 0.51%, the viability, T/C [17] was 0.37% and the viability, T/C [18] was 106%. It also gave a viability, T/C [19] of 18.4%, a viability, T/C [20] of 2.67% and a viability, T/C [21] of 0.79%. For the same molecule, the viability, T/C [22] was 0.63%, the viability, T/C [23] was 0.4% and the viability, T/C [24] was 95.6%. The viability, T/C [25] was 13.3%, the viability, T/C [26] was 2.6% and the viability, T/C [27] was 1.41%. It also gave a viability, T/C [28] of 0.42%, a viability, T/C [29] of 0.5% and a viability, T/C [30] of 93.7%. For the same molecule, the viability, T/C [31] was 15.9%, the viability, T/C [32] was 2.17% and the viability, T/C [33] was 0.62%. It also gave a viability, T/C [34] of 0.39% and a viability, T/C [35] of 0.43%.
NC1CCC(NC2CC2c2ccccc2)CC1 (stereo not drawn) was tested, and the viability, T/C (compound 0.1 µM) was 86.8% [middle of 25 runs], the viability, T/C (compound 0.316 µM) was 85.2% and 90.6% and the viability, T/C (compound 1 µM) was 86% [middle of 25 runs]. The viability, T/C (compound 3.16 µM) was 84.7% [middle of 25 runs], the viability, T/C (compound 10 µM) was 75.1% [middle of 23 runs] and the IC50 (compound alone, run of 11/29/2021) was greater than 10000 nM.
O=C(C=Cc1cccc(S(=O)(=O)Nc2ccccc2)c1)NO was tested, and the viability, T/C (compound 0.00949 µM) was 94% and 91%, the viability, T/C (compound 0.03 µM) was 82.5% and 80.6% and the viability, T/C (compound 0.0949 µM) was 70.8% and 65.3%. The viability, T/C (compound 0.3 µM) was 53.1% and 46.8%, the viability, T/C (compound 0.949 µM) was 33.8% and 34.2% and the viability, T/C (compound 3 µM) was 12.4% and 8.72%. For the same molecule, the IC50 (curve of compound) was 365 nM and 282 nM.
